Counter-ions that a name gives are not always drawn. Like-named read-outs stand apart in the source and are kept apart here. Values belong to the molecule of their own block, whether it stands above or below them.
Biological target: T1, Na+-dependent bile acid transport system (Oryctolagus cuniculus, UniProt Q28727)
T1 construct: brush-border membrane vesicles from the ileum of rabbits; from tissue; host or cells: terminal ileum of male New Zealand rabbits, brush-border membrane vesicles
T1 sequence (Q28727 1-347): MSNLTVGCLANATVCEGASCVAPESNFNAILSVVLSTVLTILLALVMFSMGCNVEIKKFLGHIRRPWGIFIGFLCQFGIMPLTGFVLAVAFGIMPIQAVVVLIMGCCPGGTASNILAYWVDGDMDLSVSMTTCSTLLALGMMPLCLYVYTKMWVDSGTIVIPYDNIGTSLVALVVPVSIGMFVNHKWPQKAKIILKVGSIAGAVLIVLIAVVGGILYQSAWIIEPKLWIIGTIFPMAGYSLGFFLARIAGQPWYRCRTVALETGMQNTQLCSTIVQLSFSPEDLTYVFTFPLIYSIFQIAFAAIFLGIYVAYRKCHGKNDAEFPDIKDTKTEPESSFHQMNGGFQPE
Assay: Inhibition of Na+-dependent [3H]taurocholate absorption into brush-border membrane vesicles of the ileum
Type: biochemical, rabbit
Procedure: The preparation of brush-border membrane vesicles from the intestinal cells of the small intestine was carried out using the so-called Mg^2+ precipitation method. Male New Zealand rabbits (2-2.5 kg body weight) were sacrificed by intravenous injection of 0.5 ml of T-61^R. The small intestine was removed and rinsed with ice-cold physiological saline solution. The terminal 3/10 of the small intestine (measured in the oral-rectal direction, i.e. the terminal ileum, which contains the active Na^+ -dependent bile acid transport system) were used for preparation of the brush-border membrane vesicles. The intestines were frozen at -80° C. under nitrogen in plastic bags. The frozen intestines were thawed in a water bath at 30° C. in order to prepare the membrane vesicles. The mucosa was scraped off and suspended in 60 ml of ice-cold 12 mM trys/HCl buffer (pH 7.1)/300 mM mannitol, 5 mM EGTA/10 mg/l of phenylmethylsulfonyl fluoride/1 mg/l of soybean trypsin inhibitor (32 U/mg)/0.5 mg/l of bovine lung trypsin inhibitor (193 U/mg)/5 mg/l of bacitracin. After diluting to 300 ml with ice-cold distilled water, the suspension was homogenized with ice-cooling for 3 minutes at 75% of maximum power using an Ultraturrax (18 rod, IKA Werk Staufen, Federal Republic of Germany). After addition of 3 ml of 1M MgCl2 solution (final concentration 10 mM), the homogenate was allowed to stand at 0° C. for exactly 1 minute. As a result of addition of Mg^2+, the cell membranes aggregate and precipitate with the exception of the brush-border membranes. After centrifugation at 3,000×g (5,000 rpm, SS-34 rotor) for 15 minutes, the precipitate is discarded and the supernatant which contains the brush-border membranes is centrifuged at 26,700×g (15,000 rpm, SS-34 rotor) for 30 minutes. The supernatant was discarded, and the precipitate was rehomogenized in 60 ml of 12 mM tris/HCl buffer (pH 7.1)/60 mM mannitol, 5 mM EGTA using a Potter Elvejhem homogenizer (Braun Melsungen, 900 rpm, 10 strokes). After addition of 0.1 ml of 1M MgCl2 solution and an incubation time of 15 minutes at 0° C., the mixture was again centrifuged at 3,000×g for 15 minutes. The supernatant was then again centrifuged at […] (15,000 rpm, SS-34 rotor) for 30 minutes. The precipitate was taken up in 30 ml of 10 mM tris/hepes buffer (pH 7.4)/300 mM mannitol and homogeneously resuspended by 20 strokes in a Potter Elvejhem homogenizer at 1,000 rpm. After centrifugation at 48,000×g (20,000 rpm, SS-34 rotor) for 30 minutes, the precipitate was taken up in 0.5 to 2 ml of tris/hepes buffer (pH 7.4)/280 mM mannitol (final concentration 20 mg/ml) and resuspended with the aid of a tuberculin syringe using a 27 gauge needle. The vesicles were either used immediately after preparation for transport investigations or stored at -196° C. in liquid nitrogen in 4 mg portions.
The absorption of substrates into brush-border membrane vesicles was determined by means of the so-called membrane filtration technique. 10 μl of the vesicle suspension (100 μg of protein) were pipetted on the wall of a polystyrene incubation tube (11×70 mm) as a drop which contained the incubation medium together with the corresponding ligands (90 μl ). […] The incubation medium was filtered through a polyvinylidene fluoride membrane filter (SYHV LO 4NS, 0.45 μm, 4 mm .phi., Millipore, Eschborn, Federal Republic of Germany). The transport measurement was begun by mixing the vesicles with the incubation medium. […] After the desired incubation time (customarily 1 min), the transport was stopped by addition of 1 ml of ice-cold stop solution (10 mM tris/hepes, (pH 7.4)/150 mM KCl). The resulting mixture was immediately filtered off with suction in a vacuum of 25 to 35 mbar through a membrane filter made of cellulose nitrate (ME 25, 0.45 μm, 25 mm diameter, Schleicher & Schuell, Dassell, Federal Republic of Germany). The filter was subsequently washed with 5 ml of ice-cold Stop solution.

[1] = Na+-dependent transport component, 50 μM taurocholate

Compound: CC(C)c1nc(-c2ccccc2)cc(-c2ccc(F)cc2)c1/C=C/[C@@H](O)C[C@@H](O)CC(=O)NCCO[C@H]1CC[C@@]2(C)[C@@H](C1)C[C@@H](O)[C@@H]1[C@@H]2C[C@H](O)[C@]2(C)[C@@H]([C@H](C)CCC(=O)NCCS(=O)(=O)O)CC[C@@H]12 [Example 115 (Na salt)]
IC25: 12 µM
IC75: 44 µM
IC50 (read-out: IC50): 28 µM

Compound: COC(=O)CC[C@@H](C)[C@H]1CC[C@H]2[C@@H]3[C@H](O)C[C@@H]4C[C@@H](OCCNC(=O)[C@@H](C)NC(=O)[C@@H](C)NC(=O)OCc5ccccc5)CC[C@]4(C)[C@H]3C[C@H](O)[C@]12C [Example 119, Z-D-Ala-D-Ala-NH--(CH2)2 --GS--OCH3]
IC25: 48 µM
IC50 (read-out: IC50): 134 µM

Compound: CC(C)c1cc(Sc2ccc(F)cc2)cc(-c2ccc(F)cc2)c1OC[C@@H](O)C[C@@H](O)CC(=O)NCCO[C@H]1CC[C@@]2(C)[C@@H](C1)C[C@@H](O)[C@@H]1[C@@H]2C[C@H](O)[C@]2(C)[C@@H]([C@H](C)CCC(=O)O)CC[C@@H]12 [Example 93]
IC25: 3.2 µM
IC75: 23 µM
IC50 (read-out: IC50): 8 µM

Compound: CC(C)c1nc(-c2ccccc2)cc(-c2ccc(F)cc2)c1/C=C/[C@@H](O)C[C@@H](O)CC(=O)NCCCO[C@@H]1CC[C@@]2(C)[C@@H](C1)C[C@@H](O)[C@@H]1[C@@H]2C[C@H](O)[C@]2(C)[C@@H]([C@H](C)CCC(=O)O)CC[C@@H]12 [Example 87]
IC25: 16 µM
IC75: 70 µM
IC50 (read-out: IC50): 56 µM

Compound: C[C@H](CCC(=O)NCCS(=O)(=O)O)[C@H]1CC[C@H]2[C@@H]3CC[C@@H]4C[C@H](OS(=O)(=O)O)CC[C@]4(C)[C@H]3CC[C@]12C [Taurolithocholate-3-sulfate, reference compound]
IC50 (read-out: IC50): 245 µM

Compound: C[C@H](CCC(=O)O)[C@H]1CC[C@H]2[C@@H]3[C@H](O)C[C@@H]4C[C@@H](OCCNC(=O)[C@@H](C)NC(=O)[C@@H](C)N)CC[C@]4(C)[C@H]3C[C@H](O)[C@]12C [Example 121, H-D-Ala-D-Ala-NH--(CH2)2 --GS--OH]
IC25: 30 µM
IC75: 172 µM
IC50 (read-out: IC50): 84 µM

IC50 (read-out: IC50): 23 µM
Compound: C[C@H](CCC(=O)NCCS(=O)(=O)O)[C@H]1CC[C@H]2[C@@H]3[C@H](O)C[C@@H]4C[C@H](O)CC[C@]4(C)[C@H]3CC[C@]12C [Taurochenodeoxycholate, reference compound]

Compound: CC(C)c1nc(-c2ccccc2)cc(-c2ccc(F)cc2)c1/C=C/[C@@H](O)C[C@@H](O)CC(=O)NCCO[C@H]1CC[C@@]2(C)[C@@H](C1)C[C@@H](O)[C@@H]1[C@@H]2C[C@H](O)[C@]2(C)[C@@H]([C@H](C)CCC(=O)NCC(=O)O)CC[C@@H]12 [Example 105]
IC25: 11 µM
IC75: 45 µM
IC50 (read-out: IC50): 22.5 µM

Compound: CC(C)c1cc(Sc2ccc(F)cc2)cc(-c2ccc(F)cc2)c1OC[C@@H](O)C[C@@H](O)CC(=O)NCCCO[C@H]1CC[C@@]2(C)[C@@H](C1)C[C@@H](O)[C@@H]1[C@@H]2C[C@H](O)[C@]2(C)[C@@H]([C@H](C)CCC(=O)O)CC[C@@H]12 [Example 94]
IC25: 4.5 µM
IC75: 24 µM
IC50 (read-out: IC50): 13 µM

Compound: CC(C)c1cc(-c2ccc(F)cc2)c(OC[C@@H](O)C[C@@H](O)CC(=O)NCCO[C@H]2CC[C@@]3(C)[C@@H](C2)C[C@@H](O)[C@@H]2[C@@H]3C[C@H](O)[C@]3(C)[C@@H]([C@H](C)CCC(=O)NCC(=O)O)CC[C@@H]23)c(C(C)C)c1 [Example 101]
IC25: 19 µM
IC75: 68 µM
IC50 (read-out: IC50): 40 µM

Compound: C[C@H](CCC(=O)O)[C@H]1CC[C@H]2[C@@H]3[C@H](O)C[C@@H]4C[C@@H](OCCNC(=O)CCCc5ccc(N(CCCl)CCCl)cc5)CC[C@]4(C)[C@H]3C[C@H](O)[C@]12C [Example 66]
IC50: 86.5 µM
IC25 [1]: 60 µM
IC75 [1]: 148 µM

Compound: C[C@H](CCC(=O)O)[C@H]1CC[C@H]2[C@@H]3[C@H](O)C[C@@H]4C[C@@H](OCCNC(=O)[C@@H](C)NC(=O)[C@@H](C)NC(=O)OCc5ccccc5)CC[C@]4(C)[C@H]3C[C@H](O)[C@]12C [Example 122, Z-D-Ala-D-Ala-NH--(CH2)2 --GS--OH]
IC25: 19 µM
IC75: 237 µM
IC50 (read-out: IC50): 107 µM

Compound: CC(C)c1cc(-c2ccc(F)cc2)c(OC[C@@H](O)C[C@@H](O)CC(=O)NCCO[C@H]2CC[C@@]3(C)[C@@H](C2)C[C@@H](O)[C@@H]2[C@@H]3C[C@H](O)[C@]3(C)[C@@H]([C@H](C)CCC(=O)O)CC[C@@H]23)c(C(C)C)c1 [Example 81]
IC25: 15 µM
IC75: 64 µM
IC50 (read-out: IC50): 38 µM

Compound: Cc1cc(C(=C(/C=C/[C@@H](O)C[C@@H](O)CC(=O)NCCO[C@H]2CC[C@@]3(C)[C@@H](C2)C[C@@H](O)[C@@H]2[C@@H]3C[C@H](O)[C@]3(C)[C@@H]([C@H](C)CCC(=O)O)CC[C@@H]23)C(C)C)c2ccc(F)c(C)c2)ccc1F [Example 90]
IC25: 3.8 µM
IC75: 27 µM
IC50 (read-out: IC50): 12 µM

Compound: CC(C)c1nc(-c2ccccc2)cc(-c2ccc(F)cc2)c1/C=C/[C@@H](O)C[C@@H](O)CC(=O)NCCCO[C@H]1CC[C@@]2(C)[C@@H](C1)C[C@@H](O)[C@@H]1[C@@H]2C[C@H](O)[C@]2(C)[C@@H]([C@H](C)CCC(=O)O)CC[C@@H]12 [Example 86]
IC25: 14 µM
IC75: 87 µM
IC50 (read-out: IC50): 62 µM

Compound: CC(C)c1cc(-c2ccc(F)cc2)c(OC[C@@H](O)C[C@@H](O)CC(=O)NCCCO[C@H]2CC[C@@]3(C)[C@@H](C2)C[C@@H](O)[C@@H]2[C@@H]3C[C@H](O)[C@]3(C)[C@@H]([C@H](C)CCC(=O)O)CC[C@@H]23)c(C(C)C)c1 [Example 82 (Na salt)]
IC25: 17 µM
IC75: 80 µM
IC50 (read-out: IC50): 48 µM

IC25: 12 µM
IC75: 104 µM
IC50 (read-out: IC50): 46 µM
Compound: CC(C)c1nc(-c2ccccc2)cc(-c2ccc(F)cc2)c1/C=C/[C@@H]1C[C@@H](O)CC(=O)O1 [Example 125, reference compound]

Compound: CC(C)c1cc(-c2ccc(F)cc2)c(OC[C@@H](O)C[C@@H](O)CC(=O)NCCO[C@H]2CC[C@@]3(C)[C@@H](C2)C[C@@H](O)[C@@H]2[C@@H]3C[C@H](O)[C@]3(C)[C@@H]([C@H](C)CCC(=O)NCCS(=O)(=O)O)CC[C@@H]23)c(C(C)C)c1 [Example 111]
IC25: 10 µM
IC75: 39 µM
IC50 (read-out: IC50): 24 µM

Compound: C[C@H](CCC(=O)NCCS(=O)(=O)O)[C@H]1CC[C@H]2[C@@H]3CC[C@@H]4C[C@H](O)CC[C@]4(C)[C@H]3CC[C@]12C [Taurolithocholate, reference compound]
IC50 (read-out: IC50): 12 µM

Compound: C[C@H](CCC(=O)NCC(=O)O)[C@H]1CC[C@H]2[C@@H]3[C@H](O)C[C@@H]4C[C@@H](OCCNC(=O)CCCc5ccc(N(CCCl)CCCl)cc5)CC[C@]4(C)[C@H]3C[C@H](O)[C@]12C [Example 68]
IC50: 89 µM
IC25 [1]: 60 µM
IC75 [1]: 250 µM

Compound: COC(=O)CC[C@@H](C)[C@H]1CC[C@H]2[C@@H]3[C@H](O)C[C@@H]4C[C@@H](OCCNC(=O)[C@@H](C)NC(=O)[C@@H](C)N)CC[C@]4(C)[C@H]3C[C@H](O)[C@]12C [Example 120, H-D-Ala-D-Ala-NH--(CH2)2 --GS--OCH3]
IC25: 38 µM
IC75: 178 µM
IC50 (read-out: IC50): 87 µM

Reference: patent US5462933A, “Modified bile acid conjugates, and their use as pharmaceuticals” (Hoechst Aktiengesellschaft, priority 1989, dated 1995)
